# Experimental data as given in EP4389117A1, “PROGESTERONE FORMULATION” (Besins Healthcare Distribution FZ-LLC, priority 2022, dated 2024).
# Like-named read-outs stand apart in the source and are kept apart here.
# Assays:
# [1] = Particle size distribution (PSD) measurement by laser light diffractometry, Malvern Mastersizer 2000; assay type: physicochemical; details: starting powder before wet-medium-milling
# Experimental: In this document, any particle size characteristic of the wet-media-milled progesterone particles is determined using laser light diffractometry and is based on a volume weighted particle size distribution, unless specifically indicated otherwise. […] As will be understood by those skilled in the art, the term "Dv50" as used herein refers to the point in the size distribution, up to and including which, 50% of the total volume of material in the sample is 'contained'. […] Particle size distribution ('PSD') characteristics are determined using a Malvern® Mastersizer 2000 apparatus equipped with a Hydro 2000 SM wet sample dispersion unit, operated with the settings summarized in table 1. Table 1 - PSD measurement settings [table]
# [2] = single 200 mg oral dose, cited from earlier work
smiles,measurement,setting,value
"CC(=O)[C@H]1CC[C@H]2[C@@H]3CCC4=CC(=O)CC[C@]4(C)[C@H]3CC[C@]12C [progesterone, pregn-4-ene-3,20-dione]",Dv10,[1],4.7
same,Dv50,[1],38.4
same,Dv90,[1],74.6
same,peak levels of progesterone compared to plain milled progesterone,[2]; as a consequence of micronization,1.4 fold
same,peak levels of progesterone compared to plain milled progesterone,[2]; as a consequence of the suspension in oil,1.2 fold
same,peak levels of progesterone compared to plain milled progesterone,[2]; combination of micronization and the suspension in oil,3.2 fold
